Reference: patent EP4057003A1, “SELECTIVE SULFATE ANION DETECTION USING GUANYLATED FLUOROPHORES” (Universidad de Castilla la Mancha, priority 2021, dated 2022)

Experiments:
[1] = pH titration of aqueous solution, UV-Vis absorption and steady-state fluorescence (pH dependence, pKa); assay type: physicochemical
Method: For experiments in water, stock solutions (1 mM) of guanylated fluorophore (A) in ethanol were used. All aqueous solutions were prepared by diluting the stock solution in Milli-Q water to the desired concentration and filtered with 0.22 µm filters before use. For the pH titration experiments, aqueous solutions of guanylated fluorophore (A) (10 µM) were titrated by the successive addition of small volumes (in the order of microliters) of HCI and NaOH solutions of different concentrations (0.01-10 M) to an initial volume of 25 mL to minimize changes in the sample volume. UV-Vis absorption, SSF spectra were recorded.
UV-Vis absorption spectra of guanylated fluorophore (A) were recorded at room temperature using a Cary 100 (Varian) spectrophotometer using a slit width of 0.4 nm and a scan rate of 600 nm/min.
(§1) Steady-state fluorescence (SSF) spectra of the samples were recorded employing an FLS920 (Edinburgh Instruments) spectrofluorometer equipped with a MCP-PMT (microchannel plate-photomultiplier tube) detector (R3809 model) and a TCSPC (time-correlated single photon counting) data acquisition card (TCC900 model). A TLC 50 temperature-controlled cuvette holder (Quantum Northwest) was employed for the measurements (temperature was controlled at 296 K, which corresponds to 22.85 °C). A Xe lamp of 450 W was used as the light source for SSF spectra. […]

[2] = Anion selectivity, fluorescence decrease on addition of anion in water (Figure 6a); details: 100 µM anion
Method: (§2) For ion interaction experiments, an aqueous solution of guanylated fluorophore (A) (10 µM) was titrated with different salt solutions (CaCl2, KCI, NaCl, NaCH3COO, KSCN, Na2CO3, Na2SO3, SDS, Na2HPO4, Na3PO4, AgNO3, MgSO4, CuSO4, and NiSO4). Different concentrations of ions were tested from 0 to 100 µM and steady-state fluorescence (SSF) spectra were acquired. All measurements were performed using 10 mm quartz cuvette (Hellma Analytics).
The selectivity of guanylated fluorophore (A) was tested with different anions (Figure 6a). […] It is important to emphasize that the selectivity of guanylated fluorophore (A) was tested in water, where the presence of cations like Ca^2+, Ni^2+, K^+, Na^+ or Mg^2+ or anions like HPO4^2- NO^3- and Cl^- normally presented in this media will not affect the final recognition values. To evaluate the selectivity to sulfate anions, additional experiments were conducted on water complex samples containing high concentrations of such ions as interfering.

[3] = Ion recognition: fluorescence change on addition of salts in water
Method: […] Different concentrations of ions were tested from 0 to 100 µM and steady-state fluorescence (SSF) spectra were acquired. All measurements were performed using 10 mm quartz cuvette (Hellma Analytics).
as §1
Although the fluorescence intensity of guanylated fluorophore (A) was the same for most of the ions, the presence of sulfate anions (added to a concentration of 100 µM) caused -2-fold fluorescence quenching in guanylated fluorophore (A) (at a concentration of 10 µM) (Figure 5a). […] More importantly, for the same titration a gradual fluorescence decrease without any shift in the emission spectra was observed (see Figure 5c).
Figure 6b collects the fluorescence changes (%) of guanylated fluorophore (A) when successive quantities of 100 µM of anions are added over 5µM solution of A in water.

[4] = Association constant from fluorescence titration data, Scatchard plot method; assay type: binding
Method: as §2
Chem. Commun. (Cambridge, United Kingdom) 2003, 2 (6), 792-793. https://doi.org/10.1039/b300098b)by the following equation (i): [SO4^(2−)] = (1)/(nKa)(1)/([F]0^(n−1))(1−α)/(α^n) [formula] where; α is defined as the ratio between concentration of free fluorophore (e.g. [F] and initial [F]0 fluorophore concentration, e.g. for the guanylated fluorophore (A), and can be determined from the fluorescence difference at any titration stage; n is the stoichiometry to the studied complex Fn(SO4^2-)m.
The data of figure 5d of example 3 was fitted to equation (i) as shown in: • Figure 7a for the 1:1 complex of guanylated fluorophore (A) and sulfate anion (i.e., (A)(SO4^2-), complex A) • Figure 7b for the a 2:1 complex of guanylated fluorophore (A) and sulfate anion (i.e., (A)2(SO4^2-), complex B)

SMILES: CC(C)NC(=Nc1ccc2c(c1)Cc1ccccc1-2)NC(C)C [guanylated fluorophore (A), 2-(9H-fluoren-2-yl)-1,3-diisopropylguanidine]
- pKa ([1]; aqueous solution (Milli-Q water), water, from absorption spectra at different pH (A / AH^+ equilibrium)): 11.1
- intensity of the fluorescence and the wavelength of emission ([1]; pH in the range of 5-12, λex 272 nm): only mildly affected
- sensitivity ([2]; HPO4^2-): no sensitivity was found
- sensitivity ([2]; PO4^3-): no sensitivity was found
- sensitivity ([2]; SO3^2-): sensitivity was not observed
- sensitivity ([2]; dodecyl sulfate (SDS)): sensitivity was not observed
- fluorescence changes (%) / emission intensity ([3]; successive additions of 100 µM of anions to 5 µM solution in water (Figure 6b)): exclusively decreases when sulfate anions are added
- fluorescence quenching ([3]; sulfate anions 100 µM, fluorophore 10 µM, water): -2 fold
- Ka ([4]; 1:1 complex (A)(SO4^2-), complex A): 1.26x10^5
- Ka ([4]; 2:1 complex (A)2(SO4^2-), complex B): 1.55x10^10
